We go through four molecules from ChEMBL document CHEMBL1129805, “Novel conformationally constrained analogues of diacylglycerol. Protein kinase C binding affinity of simplified compounds based on a 6-membered lactam moiety” (Bioorg Med Chem Lett, 1997).

In test [1] the target is Protein kinase C delta type (Homo sapiens, UniProt Q05655). In words: Displacement of [3H]PDBu from Protein kinase C delta.
Test [2] deals with HL-60. In words: Effective dose required to […] the differentiation to monocytes of HL-60 cells; Weaker activity. Type of test: functional. Particulars: Homo sapiens, read-out: ED50 (the source's name).
The test system of test [3] is HL-60. In words: Effective dose required to […] the differentiation to monocytes of HL-60 cells; Inactive. The class given is functional. Particulars: Homo sapiens, read-out: ED50 (the source's name).
The test system of test [4] is HL-60. In words: Effective dose required to […] the differentiation to monocytes of HL-60 cells. The class given is functional. The settings on record: Homo sapiens, read-out: ED50 (the source's name).

Protein kinase C delta type, sequence (Q05655 whole entry): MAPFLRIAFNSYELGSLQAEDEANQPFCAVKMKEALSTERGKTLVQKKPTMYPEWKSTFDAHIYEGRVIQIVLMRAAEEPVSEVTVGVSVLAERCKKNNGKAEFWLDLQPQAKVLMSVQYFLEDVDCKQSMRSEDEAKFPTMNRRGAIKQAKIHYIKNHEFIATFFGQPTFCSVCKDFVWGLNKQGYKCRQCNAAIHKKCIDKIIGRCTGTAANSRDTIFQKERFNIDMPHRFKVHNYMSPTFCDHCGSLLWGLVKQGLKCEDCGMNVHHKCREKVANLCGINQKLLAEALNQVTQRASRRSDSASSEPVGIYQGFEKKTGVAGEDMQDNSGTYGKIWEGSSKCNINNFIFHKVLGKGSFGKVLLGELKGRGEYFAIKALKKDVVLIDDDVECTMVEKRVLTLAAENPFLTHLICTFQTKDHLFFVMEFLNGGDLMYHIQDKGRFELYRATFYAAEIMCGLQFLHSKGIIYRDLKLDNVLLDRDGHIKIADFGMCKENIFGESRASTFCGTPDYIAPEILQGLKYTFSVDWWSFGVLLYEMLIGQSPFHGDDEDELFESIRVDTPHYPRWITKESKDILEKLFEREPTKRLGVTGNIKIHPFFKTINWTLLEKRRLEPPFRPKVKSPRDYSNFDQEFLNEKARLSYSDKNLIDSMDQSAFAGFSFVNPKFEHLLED

A word on the Ki: it is the equilibrium dissociation constant of an inhibitor or competing ligand from its target. Consider `CCCCCCCCCCCCCCN1C[C@@H](CO)NC(=O)[C@H]1C(C)C`, for which the Ki in test [1] is 6500 nM. Turning to `CCCCCCCCCCCCCCN1C[C@H](CO)NC(=O)[C@@H]1C(C)C`, in test [1], the Ki worked out at 2700 nM. The EC50 in test [2] amounted to 1000 nM. On to `CCCCCCCCCCCCCCN1C[C@H](CO)NC(=O)[C@H]1C(C)C`, for which the inhibition constant Ki in test [1] came to 12000 nM. Besides, in test [3], the EC50 was over 5000 nM. `CCCCCCCCCCCCCCN1C[C@@H](CO)NC(=O)[C@@H]1C(C)C`: the Ki in test [1] was 290 nM. In addition, in test [4], the EC50 came out at 200 nM.
